Measurements published in US12357711B2, “PSMA binding dual mode radiotracer and therapeutic” (Technische Universität München, priority 2019, dated 2025).

System: SCID mice
Test: Preclinical dosimetry from biodistribution in mice, extrapolated to 70-kg Standard Adult (OLINDA/EXM 1.0)
Assay type: in vivo
Conditions: […] bladder voiding interval
Protocol: 3-5 mice were injected per timepoint with a mean 25.6±3.6 MBq of 18F-rhPSMA-7 and 28.5±4.8 MBq of 18F-rhPSMA-7.3, respectively. Mice, severe combined immunodeficiency (SCID) were used for the experiments.
Mice were sacrificed at the following timepoints: • ^18F-rhPSMA-7: 10, 20, 40, 60, 120 and 180 minutes after administration. • ^18F-rhPSMA-7.3: 10, 60, 120, 180 and 300 minutes after administration.
Urine, blood, heart, lung, spleen, pancreas, liver, stomach (emptied), small intestine (emptied), large intestine (emptied), kidneys, bladder, testis, fat, muscle (partial, femoral), femur, tail and brain. Urine was collected with a pipette in the CO2 gas chamber. In case of missing urination in the chamber the bladder was aspirated with an insulin syringe. Blood was withdrawn instantly after sacrifice with an insulin syringe from the heart. All other tissues and organs were dissected and transferred directly in plastic containers.
The counting rates of measurement samples were automatically corrected for decay. The radioactivity distribution ratios (unit: percentage of the injected dose (% ID) in the measurement samples were determined using the equation below. The sum of the counting rates from all measurement samples obtained from one mouse was designated as the counting rate for administrated radioactivity.
The radioactivity distribution ratio per unit weight of the measurement sample (unit: % ID/g) excluding urine and feces samples was determined by using the equation below. The weight of the measurement sample was determined by subtraction of the empty measurement container from the container including the sample.
For consistency of statistical calculations for each radiotracer the same number of time-points for ^18F-rhPSMA-7 and ^18F-rhPSMA-7.3 was used. Therefore, for ^18F-rhPSMA-7 the 10 min and 20 min time points were combined creating a 15 min endpoint.
The time-integral of activity for the accumulation in the significant source organs (AUCs) were generated both with numerical integration and physical decay according to J Juan et al., Journal of Pharmaceutical Sciences, 1993, 82:762-763.
In brief, to calculate a human dosimetry from the biodistribution in the mice, an extrapolation was necessary to account for the differences between the animals and humans. Normal-organ radiation doses were estimated for the 70-kg Standard Adult anatomic model using time-depending organ activity concentrations (in percent of the injected dose per gram, % ID/g) and total-body activities measured in the biodistribution studies in mice.
Tissue activity concentrations in mice were converted to tissue fractional activities in the 70-kg Standard Adult using the relative fractional organ masses in the Standard Adult and the “standard” 25-gramm mouse. Time-dependent total-body activity was fit to an exponential function and the difference between the injected activity and the total-body activity was assumed to be excreted to the urine because activity concentrations in the liver and GI tracer were low at all time points studied.
Organ residence time was calculated by numerical integration using the trapezoidal rule and the rest-of-body ^18F residence times was calculated as the difference between the total-body residence time and the sum of the organ and urine residence times. The bladder contents residence time was estimated using the dynamic voiding model in the OLINDA/EXM 1.0 dosimetry software. Finally, the Standard Adult mean organ dose equivalents (in mSv/MBq) and effective dose (also in mSv/MBq) were then calculated using OLIN DA/EXM 1.0.
Final calculation of radiation absorbed dose and dosimetry from biodistribution in mice: The tissues or organs in which a significant accumulation of radioactivity occurs (i.e., source organ) were kidney, spleen, lung, liver and heart. With respect to activity accumulation and clearance, a rapid clearance from blood and clearance to urine but relatively slow build-up in kidney was found.

[^19F][^natGa]D/L-Dap-R/S-DOTAGA-rhPSMA7 [rhPSMA7-rac]
Adrenals ED Cont.: 3.90E−05 mSv/MBq | Adrenals EDE Cont.: 0.00E000 mSv/MBq | Adrenals dose Alpha: 0.00E000 mSv/MBq | Adrenals dose Beta: 1.95E−03 mSv/MBq | Adrenals dose Photon: 5.85E−03 mSv/MBq | Adrenals dose Total: 7.80E−03 mSv/MBq | Brain ED Cont.: 2.24E−05 mSv/MBq | Brain EDE Cont.: 0.00E000 mSv/MBq | Brain dose Alpha: 0.00E000 mSv/MBq | Brain dose Beta: 1.95E−03 mSv/MBq | Brain dose Photon: 2.54E−03 mSv/MBq | Brain dose Total: 4.49E−03 mSv/MBq | Breasts ED Cont.: 2.12E−04 mSv/MBq | Breasts EDE Cont.: 6.36E−04 mSv/MBq | Breasts dose Alpha: 0.00E000 mSv/MBq | Breasts dose Beta: 1.95E−03 mSv/MBq | Breasts dose Photon: 2.29E−03 mSv/MBq | Breasts dose Total: 4.24E−03 mSv/MBq | Gallbladder Wall ED Cont.: 0.00E000 mSv/MBq | Gallbladder Wall EDE Cont.: 0.00E000 mSv/MBq | Gallbladder Wall dose Alpha: 0.00E000 mSv/MBq | Gallbladder Wall dose Beta: 1.95E−03 mSv/MBq | Gallbladder Wall dose Photon: 5.54E−03 mSv/MBq | Gallbladder Wall dose Total: 7.49E−03 mSv/MBq | Heart Wall ED Cont.: 0.00E000 mSv/MBq | Heart Wall EDE Cont.: 0.00E000 mSv/MBq | Heart Wall dose Alpha: 0.00E000 mSv/MBq | Heart Wall dose Beta: 8.82E−04 mSv/MBq | Heart Wall dose Photon: 3.54E−03 mSv/MBq | Heart Wall dose Total: 4.42E−03 mSv/MBq | Kidneys ED Cont.: 3.25E−04 mSv/MBq | Kidneys EDE Cont.: 3.91E−03 mSv/MBq | Kidneys dose Alpha: 0.00E000 mSv/MBq | Kidneys dose Beta: 4.70E−02 mSv/MBq | Kidneys dose Photon: 1.80E−02 mSv/MBq | Kidneys dose Total: 6.51E−02 mSv/MBq | LLI Wall ED Cont.: 1.93E−03 mSv/MBq | LLI Wall EDE Cont.: 9.66E−04 mSv/MBq | LLI Wall dose Alpha: 0.00E000 mSv/MBq | LLI Wall dose Beta: 1.95E−03 mSv/MBq | LLI Wall dose Photon: 1.41E−02 mSv/MBq | LLI Wall dose Total: 1.61E−02 mSv/MBq | Liver ED Cont.: 2.13E−04 mSv/MBq | Liver EDE Cont.: 0.00E000 mSv/MBq | Liver dose Alpha: 0.00E000 mSv/MBq | Liver dose Beta: 6.35E−04 mSv/MBq | Liver dose Photon: 3.63E−03 mSv/MBq | Liver dose Total: 4.27E−03 mSv/MBq | Lungs ED Cont.: 5.16E−04 mSv/MBq | Lungs EDE Cont.: 5.16E−04 mSv/MBq | Lungs dose Alpha: 0.00E000 mSv/MBq | Lungs dose Beta: 1.25E−03 mSv/MBq | Lungs dose Photon: 3.04E−03 mSv/MBq | Lungs dose Total: 4.30E−03 mSv/MBq | Muscle ED Cont.: 3.84E−05 mSv/MBq | Muscle EDE Cont.: 0.00E000 mSv/MBq | Muscle dose Alpha: 0.00E000 mSv/MBq | Muscle dose Beta: 1.95E−03 mSv/MBq | Muscle dose Photon: 5.73E−03 mSv/MBq | Muscle dose Total: 7.68E−03 mSv/MBq | Osteogenic Cells ED Cont.: 8.93E−05 mSv/MBq | Osteogenic Cells EDE Cont.: 2.68E−04 mSv/MBq | Osteogenic Cells dose Alpha: 0.00E000 mSv/MBq | Osteogenic Cells dose Beta: 4.18E−03 mSv/MBq | Osteogenic Cells dose Photon: 4.75E−03 mSv/MBq | Osteogenic Cells dose Total: 8.93E−03 mSv/MBq | Ovaries ED Cont.: 3.09E−03 mSv/MBq | Ovaries EDE Cont.: 3.87E−03 mSv/MBq | Ovaries dose Alpha: 0.00E000 mSv/MBq | Ovaries dose Beta: 1.95E−03 mSv/MBq | Ovaries dose Photon: 1.35E−02 mSv/MBq | Ovaries dose Total: 1.55E−02 mSv/MBq | Pancreas ED Cont.: 4.04E−05 mSv/MBq | Pancreas EDE Cont.: 0.00E000 mSv/MBq | Pancreas dose Alpha: 0.00E000 mSv/MBq | Pancreas dose Beta: 1.95E−03 mSv/MBq | Pancreas dose Photon: 6.13E−03 mSv/MBq | Pancreas dose Total: 8.08E−03 mSv/MBq | Red Marrow ED Cont.: 8.16E−04 mSv/MBq | Red Marrow EDE Cont.: 8.16E−04 mSv/MBq | Red Marrow dose Alpha: 0.00E000 mSv/MBq | Red Marrow dose Beta: 1.39E−03 mSv/MBq | Red Marrow dose Photon: 5.41E−03 mSv/MBq | Red Marrow dose Total: 6.80E−03 mSv/MBq | Skin ED Cont.: 4.93E−05 mSv/MBq | Skin EDE Cont.: 0.00E000 mSv/MBq | Skin dose Alpha: 0.00E000 mSv/MBq | Skin dose Beta: 1.95E−03 mSv/MBq | Skin dose Photon: 2.98E−03 mSv/MBq | Skin dose Total: 4.93E−03 mSv/MBq | Small Intestine ED Cont.: 5.18E−05 mSv/MBq | Small Intestine EDE Cont.: 0.00E000 mSv/MBq | Small Intestine dose Alpha: 0.00E000 mSv/MBq | Small Intestine dose Beta: 1.95E−03 mSv/MBq | Small Intestine dose Photon: 8.40E−03 mSv/MBq | Small Intestine dose Total: 1.04E−02 mSv/MBq | Spleen ED Cont.: 1.30E−04 mSv/MBq | Spleen EDE Cont.: 1.56E−03 mSv/MBq | Spleen dose Alpha: 0.00E000 mSv/MBq | Spleen dose Beta: 1.59E−02 mSv/MBq | Spleen dose Photon: 1.01E−02 mSv/MBq | Spleen dose Total: 2.61E−02 mSv/MBq | Stomach Wall ED Cont.: 8.40E−04 mSv/MBq | Stomach Wall EDE Cont.: 0.00E000 mSv/MBq | Stomach Wall dose Alpha: 0.00E000 mSv/MBq | Stomach Wall dose Beta: 1.95E−03 mSv/MBq | Stomach Wall dose Photon: 5.05E−03 mSv/MBq | Stomach Wall dose Total: 7.00E−03 mSv/MBq | Testes ED Cont.: 0.00E000 mSv/MBq | Testes EDE Cont.: 0.00E000 mSv/MBq | Testes dose Alpha: 0.00E000 mSv/MBq | Testes dose Beta: 1.95E−03 mSv/MBq | Testes dose Photon: 9.69E−03 mSv/MBq | Testes dose Total: 1.16E−02 mSv/MBq | Thymus ED Cont.: 2.59E−05 mSv/MBq | Thymus EDE Cont.: 0.00E000 mSv/MBq | Thymus dose Alpha: 0.00E000 mSv/MBq | Thymus dose Beta: 1.95E−03 mSv/MBq | Thymus dose Photon: 3.24E−03 mSv/MBq | Thymus dose Total: 5.18E−03 mSv/MBq | Thyroid ED Cont.: 2.59E−04 mSv/MBq | Thyroid EDE Cont.: 1.55E−04 mSv/MBq | Thyroid dose Alpha: 0.00E000 mSv/MBq | Thyroid dose Beta: 1.95E−03 mSv/MBq | Thyroid dose Photon: 3.23E−03 mSv/MBq | Thyroid dose Total: 5.18E−03 mSv/MBq | Total Body ED Cont.: 0.00E000 mSv/MBq | Total Body EDE Cont.: 0.00E000 mSv/MBq | Total Body dose Alpha: 0.00E000 mSv/MBq | Total Body dose Beta: 2.37E−03 mSv/MBq | Total Body dose Photon: 5.39E−03 mSv/MBq | Total Body dose Total: 7.77E−03 mSv/MBq | ULI Wall ED Cont.: 4.63E−05 mSv/MBq | ULI Wall EDE Cont.: 0.00E000 mSv/MBq | ULI Wall dose Alpha: 0.00E000 mSv/MBq | ULI Wall dose Beta: 1.95E−03 mSv/MBq | ULI Wall dose Photon: 7.31E−03 mSv/MBq | ULI Wall dose Total: 9.26E−03 mSv/MBq | Urinary Bladder Wall ED Cont.: 1.77E−02 mSv/MBq | Urinary Bladder Wall EDE Cont.: 2.12E−02 mSv/MBq | Urinary Bladder Wall dose Alpha: 0.00E000 mSv/MBq | Urinary Bladder Wall dose Beta: 2.45E−01 mSv/MBq | Urinary Bladder Wall dose Photon: 1.08E−01 mSv/MBq | Urinary Bladder Wall dose Total: 3.54E−01 mSv/MBq | Uterus ED Cont.: 1.40E−04 mSv/MBq | Uterus EDE Cont.: 1.68E−03 mSv/MBq | Uterus dose Alpha: 0.00E000 mSv/MBq | Uterus dose Beta: 1.95E−03 mSv/MBq | Uterus dose Photon: 2.61E−02 mSv/MBq | Uterus dose Total: 2.80E−02 mSv/MBq
